# Test results published in US10065990B2, “Cyclic peptide compound, and preparation method, pharmaceutical composition and use thereof” (HANGZHOU GUANYU BIO-MEDICAL CO., LTD, priority 2013, dated 2018).
# Where two headings read alike, the source gives them in different places.
# Assays:
# HDAC1 = HDAC1 (Homo sapiens, UniProt Q13547); assay: HDAC biochemical activity measurement (fluorescent substrate deacetylation);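 note: fluorogenic acetyl-lysine substrate (20 µM) deacetylated by HDAC1, then developer releases fluorophore read at 360 nm excitation and 460 nm emission, inhibitor incubated 30 min at 37 °C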
# [1] = test system: A549 (human lung cancer cells); assay: MTT cancer cell growth inhibition; format: cell-based; settings: Homo sapiens, A549, 72 h, MTT, 72 hours incubation, read-out: GI50 A54
# Procedure, shortened: (§1)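 Cells grown in DMEM or RPMI 1640 with 10% FBS were seeded at 1500/well and left overnight at 37° C., 5% CO2. Compounds at final 10^−5 to 10^−10 M were added in triplicate for 72 h. MTT was then added for 4 h, formazan dissolved in DMSO, and absorbance read at 570 nm to derive GI50.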
# [2] = test system: BGC-823 (human gastric cancer cells); assay: MTT cancer cell growth inhibition; format: cell-based; settings: Homo sapiens, BGC-823, 72 h, MTT, 72 hours incubation, read-out: GI50 BG
# Procedure, shortened: as §1
# [3] = test system: H1975 (non-small cell lung adenocarcinoma); assay: MTT cancer cell growth inhibition; format: cell-based; settings: Homo sapiens, NCI-H1975, 72 h, MTT, 72 hours incubation, H1975 cells; read-out: GI50 H1975
# Procedure, shortened: as §1
# [4] = test system: Hela (human cervical cancer cells); assay: MTT cancer cell growth inhibition; format: cell-based; settings: Homo sapiens, HeLa, 72 h, MTT, 72 hours incubation, read-out: GI50 Hela
# Procedure, shortened: as §1
# [5] = test system: Huh-7 (human hepatoma cells); assay: MTT cancer cell growth inhibition; format: cell-based; settings: Homo sapiens, Huh-7, 72 h, MTT, 72 hours incubation, Huh-7 cells; read-out: GI50 Huh-7
# Procedure, shortened: as §1
# [6] = test system: KBM-5 (human chronic myelogenous leukemia); assay: MTT cancer cell growth inhibition; format: cell-based; settings: Homo sapiens, KBM5, 72 h, MTT, 72 hours incubation, KBM-5 cells; read-out: GI50 KBM-5
# Procedure, shortened: as §1
# [7] = test system: MDA-MB-231 (breast cancer cells); assay: MTT cancer cell growth inhibition; format: cell-based; settings: Homo sapiens, MDA-MB-231, 72 h, read-out: GI50 MDA-MB-231, MTT, 72 hours incubation, MDA-MB-231 cells
# Procedure, shortened: as §1
# [8] = test system: N-87 (human gastric cancer cells); assay: MTT cancer cell growth inhibition; format: cell-based; settings: Homo sapiens, 72 h, MTT, 72 hours incubation, N-87 cells; read-out: GI50 N-87
# Procedure, shortened: as §1
# [9] = test system: PANC-1 (Pac-1, human pancreatic cancer cells); assay: MTT cancer cell growth inhibition; format: cell-based; settings: Homo sapiens, PANC-1, 72 h, MTT, 72 hours incubation, read-out: GI50 PAN
# Procedure, shortened: as §1
# [10] = test system: SGC-7901 (human gastric cancer cells); assay: MTT cancer cell growth inhibition; format: cell-based; settings: Homo sapiens, SGC-7901, 72 h, MTT, 72 hours incubation, SGC-7901 cells; read-out: GI50 SGC-7901
# Procedure, shortened: as §1
# [11] = test system: DU145 (human prostate cancer cells); assay: MTT cancer cell growth inhibition; format: cell-based; settings: Homo sapiens, DU-145, 72 h, MTT, 72 hours incubation, read-out: GI50 Du1
# Procedure, shortened: as §1
# [12] = test system: MOLT-4 (human acute lymphoblastic leukemia cells); assay: MTT cancer cell growth inhibition; format: cell-based; settings: Homo sapiens, MOLT-4, 72 h, MTT, 72 hours incubation, read-out: GI50 Mol
# Procedure, shortened: as §1
# [13] = test system: U937 (human leukemia cells); assay: MTT cancer cell growth inhibition; format: cell-based; settings: Homo sapiens, U-937, 72 h, MTT, 72 hours incubation, read-out: GI50 U93
# Procedure, shortened: as §1
# [14] = test system: lncap (prostate cancer cells); assay: MTT cancer cell growth inhibition; format: cell-based; settings: Homo sapiens, LNCaP, 72 h, MTT, 72 hours incubation, read-out: GI50 lnca
# Procedure, shortened: as §1
# [15] = HDAC1, 37° C. 30 minutes, read-out: IC50 HDAC1
# [16] = Table 3, read-out: IC50 HDAC1, D (non-substituent)
# [17] = Table 3, column C, read-out: IC50 HDAC1, C (six-membered ring with substituents)
# Sequence of HDAC1 (Q13547 whole entry, species assumed): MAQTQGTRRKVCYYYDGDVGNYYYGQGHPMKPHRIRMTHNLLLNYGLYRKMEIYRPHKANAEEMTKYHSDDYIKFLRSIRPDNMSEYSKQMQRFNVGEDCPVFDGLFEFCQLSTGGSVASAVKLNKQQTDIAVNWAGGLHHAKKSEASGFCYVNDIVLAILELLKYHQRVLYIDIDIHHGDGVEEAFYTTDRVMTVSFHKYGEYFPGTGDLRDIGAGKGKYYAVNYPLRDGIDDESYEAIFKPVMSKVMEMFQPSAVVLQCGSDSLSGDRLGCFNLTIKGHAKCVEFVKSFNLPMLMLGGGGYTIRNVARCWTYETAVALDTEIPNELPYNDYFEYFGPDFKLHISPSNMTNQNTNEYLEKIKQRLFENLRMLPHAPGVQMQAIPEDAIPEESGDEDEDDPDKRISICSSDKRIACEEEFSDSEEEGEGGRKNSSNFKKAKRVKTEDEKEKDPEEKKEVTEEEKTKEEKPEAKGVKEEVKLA
SMILES,IC50 (HDAC1; [15]) [nM],GI50 [1] [nM],GI50 [2] [nM],GI50 [3] [nM],GI50 [4] [nM],GI50 [5] [nM],GI50 [6] [nM],GI50 [7] [nM],GI50 [8] [nM],GI50 [9] [nM],GI50 [10] [nM],IC50 (HDAC1; [17]) [nM],GI50 [11] [nM],GI50 [12] [nM],GI50 [13] [nM],GI50 [14] [nM],also measured
C/C=C1\NC(=O)c2cccc(n2)CNC(=O)C[C@@H](/C=C/CCSC(=O)CCCCCC)OC(=O)[C@H](C(C)C)NC1=O [Compound 2],192,40,60,34,30,73,51,92,29,30,26,,,,,,IC50 (HDAC1; [16]): 192 nM
C/C=C1\NC(=O)c2cccc(n2)CNC(=O)C[C@@H](/C=C/CCSC(=O)CCCCC)OC(=O)[C@H](C(C)C)NC1=O [Compound 3],171,50,60,29,50,43,73,91,43,30,28,,,,,,IC50 (HDAC1; [16]): 171 nM
C/C=C1\NC(=O)c2nc(ccc2F)CNC(=O)C[C@@H](/C=C/CCSC(C)=O)OC(=O)[C@H](Cc2cccc3ccccc23)NC1=O [Compound 78],63,60,60,63,60,29,61,29,61,70,62,63,40,20,60,20,
C/C=C1\NC(=O)c2nc(ccc2F)CNC(=O)C[C@@H](/C=C/CCSC(C)=O)OC(=O)[C@H](Cc2ccc(O)cc2)NC1=O [Compound 81],37,50,30,43,30,34,38,34,35,50,59,37,20,30,40,30,
C=C1NC(=O)c2nc(ccc2F)CNC(=O)C[C@@H](/C=C/CCSC(C)=O)OC(=O)[C@H](C(C)C)NC1=O [Compound 84],42,40,10,55,50,28,51,28,19,70,43,42,30,20,50,20,
CC(=O)SCC/C=C/[C@@H]1CC(=O)NCc2cc(F)cc(n2)C(=O)NC(=C(C)C)C(=O)N[C@@H](C(C)C)C(=O)O1 [Compound 88],31,20,30,53,70,38,71,38,31,60,29,31,30,30,50,30,
C/C=C1\NC(=O)c2ccc(SC)c(n2)CNC(=O)C[C@@H](/C=C/CCSC(=O)CCCCCCC)OC(=O)[C@H](CC)NC1=O [Compound 173],,,,36,,71,13,48,83,,23,,,,,,GI50 ([1]; A549 cells): 60 nM; GI50 ([2]; BGC-823 cells): 40 nM; GI50 ([11]; DU145 cells): 60 nM; GI50 ([4]; Hela cells): 60 nM; GI50 ([12]; MOLT-4 cells): 30 nM; GI50 ([9]; PANC-1 cells): 40 nM; GI50 ([13]; U937 cells): 10 nM; GI50 ([14]; lncap cells): 40 nM
C/C=C1\NC(=O)c2cc(C)cc(n2)CNC(=O)C[C@@H](/C=C/CCSC(C)=O)OC(=O)[C@H](Cc2ccccc2)NC1=O [Example 67],,30,50,34,40,33,46,33,51,80,37,,30,30,30,30,
C/C=C1\NC(=O)c2ccc(F)c(n2)CNC(=O)C[C@@H](/C=C/CCSC(C)=O)OC(=O)[C@H](CCCCNC(=O)OCC2c3ccccc3-c3ccccc32)NC1=O [Example 77],94,600,50,35,50,25,52,25,52,80,601,,40,20,30,20,
C/C=C1\NC(=O)c2cc(F)cc(n2)CNC(=O)C[C@@H](/C=C/CCSC(C)=O)OC(=O)[C@H](Cc2cccc3ccccc23)NC1=O [Example 79],57,50,20,61,70,31,76,31,22,90,51,,20,30,60,30,
C/C=C1\NC(=O)c2cc(F)cc(n2)CNC(=O)C[C@@H](/C=C/CCSC(C)=O)OC(=O)[C@H](Cc2ccc(O)cc2)NC1=O [Example 82],94,40,20,52,40,29,49,29,26,80,48,,30,20,50,20,
